Reference: patent publication US9364564B2, “Pre-mixed, ready-to-use pharmaceutical compositions” (EKR Therapeutics, Inc., priority 2006, dated 2016)
Structures can show the parent of a compound that is named as a salt.

Experiments:
[1] = Effect of plastic film composition (IV bag type) on stability at 40° C.; format: physicochemical; settings: bags containing PVC (VIAFLEX, INTRAVIA), 0.2 mg/mL non-sorbitol dextrose formulation
Experimental: The effect of plastic film composition on the stability of ready to use premixed compositions comprising 0.2 mg/mL nicardipine HCl, 0.2 mM citrate, 5% dextrose, pH 4.0-4.2 for “incompatible” bags and “compatible” bags is shown in FIGS. 5A and 5B respectively. “Incompatible” bags contain polar polymers, such as polyvinyl chloride (PVC) and ethylene vinyl acetate (EVA). […] Stability evaluations were done for the 0.2 mg/mL non-sorbitol dextrose formulation in various commercially available IV infusion bag systems. […]®, and VISIV® bags were rinsed in water and covered with aluminum foil over pouches. The bags were filled with the above formulation and autoclaved at 105° C. for 21 minutes. […]®71 and GALAXY® bags were aseptically filled with the above formulation. Stability assessments were done by measuring the % drug remaining and total impurity formation (data not shown) as a function of time using RP-HPLC for samples incubated for up to 24 weeks at 40° C. The % drug remaining was calculated relative to the concentration measured post-mixing in tank.

[2] = weak base; cited from earlier work
[3] = Stability of concentrated ampul product after dilution with intravenous infusion fluids; format: physicochemical; settings: diluted to 0.1 mg/ml in IV bag, 24 hours, final pH above 4.5
Experimental: Stability results for the concentrated ampul product diluted to 0.1 mg/ml with various commonly used intravenous infusion fluids in an IV bag are shown in FIG. 1. pH after mixing was measured and is reported on the X-axis. Product stability was measured by monitoring the % drug remaining after duration of 24 hours by RP-HPLC and is shown on the Y-axis.

[4] = cited from earlier work

loss in product potency upon storage [1]	drug loss post dilution [3]	Structure (SMILES)	pKa [2]	solubility in water [4]
Significant loss in product potency	very pronounced drug loss	COC(=O)C1=C(C)NC(C)=C(C(=O)OCCN(C)Cc2ccccc2)C1c1cccc([N+](=O)[O-])c1 (racemic) [nicardipine HCl, (±)-2-(benzyl-methylamino) ethyl methyl 1,4-dihydro-2,6-dimethyl-4-(m-nitrophenyl)-3,5-pyridinedicarboxylate monohydrochloride]	~7.2	–
–	–	COC(=O)C1=C(C)NC(C)=C(C(=O)OCCN(C)Cc2ccccc2)C1c1cccc([N+](=O)[O-])c1 (stereo not shown) [Nicardipine, nicardipine]	–	only slightly soluble
